Columns and labels:
[1] = Determination of solubility in deionized water (HPLC, external standard); details: 25 °C, water, thermodynamic from solid
[2] = test system: Candida albicans ATCC10231; experiment: Systemic fungal infection in mice, intravenous administration; format: in vivo, ICR mice
Procedure: (§1) ICR mice, weighing 18-22 g, male, provided by Hubei Experimental Animal Center.
(§2) Prior to the experiment, a small amount of Candida albicans was picked from an SDA (sacharomyces agar, the same below) medium kept at 4° C. with an inoculation loop and inoculated into 1 ml YPD (Yeast Extract Peptone Dextrose Medium) culture medium, cultured at 30° C. with 200 rpm shaking and activated for 16 hours, so that the fungus was in the late stage of exponential growth. Counted with a hemocytometer and the fungal solution concentration was adjusted to 1×10^3-5×10^3 CFU/ml with RPMI1640 medium (Roswell Park Memorial Institute 1640, the same below). Monoclonal Candida albicans on SDA plate was picked up, inoculated into 1 ml YPD (Yeast Extract Peptone Dextrose Medium, the same below) culture medium, cultured at 35° C., 200 rpm for 16 hours until late exponential growth phase. Candida albicans was inoculated into fresh medium for culturing for 6 hours at 1%, centrifuged at 1000×g for 5 minutes, washed with physiological saline three times until the supernatant was colorless, counted with a hemocytometer, and the cell concentration was adjusted to 5×10^6 cells/ml. A tail vein injection of 0.1 ml/10 g caused a systemic fungal infection in mice. […] A total of 7 days of observations were performed. All dead mice were burned with ethanol.

[3] = In vitro metabolic stability in human plasma; format: in vitro ADME; details: human, plasma, 37° C., 10 μM compound, read-out: Human plasma T1/2
Procedure: (§3) This example detects the metabolic stability of the compounds of the present disclosure in human (rat) plasma and intestinal S9 in vitro. In a human (rat) plasma reaction system, 990 μl of human (rat) plasma was taken and incubated at 37° C. for 5 minutes, and 10 μl of the compound mother liquor was used to initiate the reaction. In the human (rat) intestinal S9 stability experiment, in the order shown in Table 2 below, the samples were added and incubated in a 37° C. water bath to initiate the reaction, each sample performed in triplicates. Respectively, at 1 minute, 2 minutes, 5 minutes, 15 minutes, 30 minutes after the reaction began, 100 μL of each was taken and added to a centrifuge tube containing 400 μL of 0° C. precooled internal standard working solution. The reaction was terminated, vortexed and mixed for 1 minute, centrifuged at 10000×g for 10 minutes in a 4° C. precooled high-speed centrifuge, and the supernatant was detected with HPLC. The test results were used to calculate metabolic half-life using WinNonlin (version 6.2 Pharsight, Mountain View, Calif.) with a non-compartmental model.
(§4) Compound stock solution concentration: 1 mM
(§5) Reaction matrix: human (rat) plasma, intestinal S9 purchased from Research Institute for Liver Diseases (Shanghai) Co., Ltd.

[4] = In vitro metabolic stability in rat plasma; format: in vitro ADME; details: rat, plasma, 37° C., 10 μM compound, read-out: Rat plasma T1/2
Procedure: as §3, §4, §5

[5] = In vitro metabolic stability in rat intestine S9; format: in vitro ADME; details: rat, 37° C., 10 μM compound, 1 mg/mL S9, NADPH regeneration system, read-out: Rat intestine S9 T1/2
Procedure: as §3, §4, §5

[6] = In vitro metabolic stability in human intestine S9; format: in vitro ADME; details: human, 37° C., 10 μM compound, 1 mg/mL S9, NADPH regeneration system, read-out: Human intestine S9 T1/2
Procedure: as §3, §4, §5

[7] = test system: Candida albicans ATCC10231; experiment: Systemic fungal infection in mice, intragastric administration; format: in vivo, ICR mice; details: Candida albicans, ATCC10231, po
Procedure: as §1
as §2, with “SDA” for “SDA (sacharomyces agar, the same below)”, “YPD” for “YPD (Yeast Extract Peptone Dextrose Medium)”, “1×10^3 to 5×10^3” for “1×10^3-5×10^3”, “medium.” for “medium (Roswell Park Memorial Institute 1640, the same below).”

[8] = 24 h, read-out: survival rate of mice, day 1
[9] = 48 h, read-out: survival rate of mice, day 2
[10] = 72 h, read-out: survival rate of mice, day 3
[11] = 96 h, read-out: survival rate of mice, day 4
[12] = 120 h, read-out: survival rate of mice, day 5
[13] = 144 h, read-out: survival rate of mice, day 6
[14] = 168 h, read-out: survival rate of mice, day 7
[15] = 24 h, read-out: survival rate of mice, day 1, 20 mg/kg intragastric once daily for 5 days, day 1
[16] = 48 h, read-out: survival rate of mice, day 2, 20 mg/kg intragastric once daily for 5 days, day 2
[17] = 72 h, read-out: survival rate of mice, day 3, 20 mg/kg intragastric once daily for 5 days, day 3
[18] = 96 h, read-out: survival rate of mice, day 4, 20 mg/kg intragastric once daily for 5 days, day 4
[19] = 120 h, read-out: survival rate of mice, day 5, 20 mg/kg intragastric once daily for 5 days, day 5
[20] = 144 h, read-out: survival rate of mice, day 6, 20 mg/kg intragastric once daily for 5 days, day 6
[21] = 168 h, read-out: survival rate of mice, day 7, 20 mg/kg intragastric once daily for 5 days, day 7
[22] = 24 h, 20 mg/kg intragastric once daily for 5 days, day 1, read-out: survival rate of mice, day 1
[23] = 48 h, 20 mg/kg intragastric once daily for 5 days, day 2, read-out: survival rate of mice, day 2
[24] = 72 h, 20 mg/kg intragastric once daily for 5 days, day 3, read-out: survival rate of mice, day 3
[25] = 96 h, 20 mg/kg intragastric once daily for 5 days, day 4, read-out: survival rate of mice, day 4
[26] = 120 h, 20 mg/kg intragastric once daily for 5 days, day 5, read-out: survival rate of mice, day 5
[27] = 144 h, 20 mg/kg intragastric once daily for 5 days, day 6, read-out: survival rate of mice, day 6
[28] = 168 h, 20 mg/kg intragastric once daily for 5 days, day 7, read-out: survival rate of mice, day 7

Row | SMILES | solubility at 30 min [1] [mg/mL] | half-life at 10 µM [3] [min] | half-life at 10 µM [4] [min] | half-life at 10 µM ([5]; pH 7.4) [min] | half-life at 10 µM [6] [min] | responders at 20 mg/kg [7, 22] [%] | responders at 20 mg/kg [7, 23] [%] | responders at 20 mg/kg [7, 24] [%] | responders at 20 mg/kg [7, 25] [%] | responders at 20 mg/kg [7, 26] [%] | responders at 20 mg/kg [7, 27] [%] | responders at 20 mg/kg [7, 28] [%] | further results
1 | CC[C@@H]([C@H](C)OC(=O)OC(C)OC(=O)CCCCCOP(=O)([O-])[O-])n1ncn(-c2ccc(N3CCN(c4ccc(OC[C@@H]5CO[C@@](Cn6cncn6)(c6ccc(F)cc6F)C5)cc4)CC3)cc2)c1=O.[Na+].[Na+] (stereo partly drawn) [ST0063] | > 50 | 0.85 ± 0.45 | 1.21 ± 0.75 | 19.4 ± 5.69 | 16.3 ± 2.12 |  |  |  |  |  |  |  | responders at 20 mg/kg [2, 8]: 100%; responders at 20 mg/kg [2, 9]: 100%; responders at 20 mg/kg [2, 10]: 90%; responders at 20 mg/kg [2, 11]: 90%; responders at 20 mg/kg [2, 12]: 90%; responders at 20 mg/kg [2, 13]: 90%; responders at 20 mg/kg [2, 14]: 90%; responders at 20 mg/kg [7, 15]: 90%; responders at 20 mg/kg [7, 16]: 90%; responders at 20 mg/kg [7, 17]: 80%; responders at 20 mg/kg [7, 18]: 80%; responders at 20 mg/kg [7, 19]: 80%; responders at 20 mg/kg [7, 20]: 80%; responders at 20 mg/kg [7, 21]: 80%
2 | CC[C@@H](C(C)OC(=O)OCOC(=O)CCCCCCOP(=O)([O-])[O-])n1ncn(-c2ccc(N3CCN(c4ccc(OC[C@@H]5CO[C@@](Cn6cncn6)(c6ccc(F)cc6F)C5)cc4)CC3)cc2)c1=O.[Na+].[Na+] (stereo partly drawn) [ST0074] | > 50 | 0.86 ± 0.07 | 1.26 ± 0.54 | 18.2 ± 5.66 | 20 ± 4.66 |  |  |  |  |  |  |  | responders at 20 mg/kg [2, 8]: 100%; responders at 20 mg/kg [2, 9]: 100%; responders at 20 mg/kg [2, 10]: 90%; responders at 20 mg/kg [2, 11]: 90%; responders at 20 mg/kg [2, 12]: 90%; responders at 20 mg/kg [2, 13]: 90%; responders at 20 mg/kg [2, 14]: 90%; responders at 20 mg/kg [7, 15]: 100%; responders at 20 mg/kg [7, 16]: 100%; responders at 20 mg/kg [7, 17]: 90%; responders at 20 mg/kg [7, 18]: 80%; responders at 20 mg/kg [7, 19]: 80%; responders at 20 mg/kg [7, 20]: 80%; responders at 20 mg/kg [7, 21]: 70%
3 | CC[C@@H](C(C)OC(=O)OC(C)OC(=O)CCCCOS(=O)(=O)[O-])n1ncn(-c2ccc(N3CCN(c4ccc(OC[C@@H]5CO[C@@](Cn6cncn6)(c6ccc(F)cc6F)C5)cc4)CC3)cc2)c1=O.[Na+] (stereo partly drawn) [ST0078] | > 50 | 2.22 ± 0.58 | 2.57 ± 0.74 | 28.2 ± 5.65 | 24.2 ± 8.75 | 90 | 90 | 80 | 70 | 70 | 70 | 70 | 
4 | CC[C@@H](C(C)OC(=O)OC(C)OC(=O)CCCCCCCCCOP(=O)([O-])[O-])n1ncn(-c2ccc(N3CCN(c4ccc(OC[C@@H]5CO[C@@](Cn6cncn6)(c6ccc(F)cc6F)C5)cc4)CC3)cc2)c1=O.[Na+].[Na+] (stereo partly drawn) [ST0072] |  | 18.3 ± 1.97 | 25.6 ± 13 |  |  |  |  |  |  |  |  |  | half-life at 10 µM ([5]; intestinal S9, pH 7.4): 39.9 ± 10.8 min; half-life at 10 µM ([6]; intestinal S9): 46.8 ± 12.8 min
5 | CC[C@@H]([C@H](C)O)n1ncn(-c2ccc(N3CCN(c4ccc(OC[C@@H]5CO[C@@](Cn6c[n+](C(C)OC(=O)OCC[C@@H](N)C(=O)O)cn6)(c6ccc(F)cc6F)C5)cc4)CC3)cc2)c1=O.Cl.[Cl-] (stereo partly drawn) [ST0018] |  | 18.6 ± 5.63 | 11.5 ± 1.23 |  |  |  |  |  |  |  |  |  | half-life at 10 µM ([5]; intestinal S9, pH 7.4): 45.2 ± 6.95 min; half-life at 10 µM ([6]; intestinal S9): 50.1 ± 5.98 min
6 | CC[C@@H]([C@H](C)OC(=O)OC(C)OC(=O)CCCCCCCOS(=O)(=O)[O-])n1ncn(-c2ccc(N3CCN(c4ccc(OC[C@@H]5CO[C@@](Cn6cncn6)(c6ccc(F)cc6F)C5)cc4)CC3)cc2)c1=O.[Na+] (stereo partly drawn) [ST0082] | > 50 | 8.99 ± 2.52 | 9.36 ± 1.56 | 52.6 ± 8.69 | 42.1 ± 13.7 | 90 | 70 | 70 | 70 | 70 | 70 | 60 | 
7 | CC[C@@H](C(C)OC(=O)OC(C)OC(=O)CCCCCOS(=O)(=O)[O-])n1ncn(-c2ccc(N3CCN(c4ccc(OC[C@@H]5CO[C@@](Cn6cncn6)(c6ccc(F)cc6F)C5)cc4)CC3)cc2)c1=O.[Na+] (stereo partly drawn) [ST0079] | > 50 | 2.56 ± 0.42 | 2.06 ± 0.77 | 27.9 ± 11.2 | 28.7 ± 8.9 | 90 | 90 | 90 | 80 | 80 | 70 | 70 | 
8 | CC[C@@H]([C@H](C)OC(=O)OC(C)OC(=O)Cc1ccc(OS(=O)(=O)[O-])cc1)n1ncn(-c2ccc(N3CCN(c4ccc(OC[C@@H]5CO[C@@](Cn6cncn6)(c6ccc(F)cc6F)C5)cc4)CC3)cc2)c1=O.[Na+] (stereo partly drawn) [ST0080] |  | 12.8 ± 3.57 | 13.3 ± 4.78 | 45.4 ± 11.3 | 40.3 ± 12.7 | 90 | 90 | 90 | 80 | 70 | 70 | 60 | 
